Measured values reported in publication PMC3961306, “Comparison of the Cancer Gene Targeting and Biochemical Selectivities of All Targeted Kinase Inhibitors Approved for Clinical Use” (PLoS ONE, 2014).

Key:
Test in all cases: Kinase profiling in a biochemical assay panel (mobility shift assays and ELISA), %-inhibition at 1 μM; selectivity entropy
[1] = biological target: panel of more than 300 wild-type and mutant kinases (313 kinase panel) (Homo sapiens, UniProt Q00534)
[2] = biological target: panel of more than 300 wild-type and mutant kinases (313 kinase panel) (Homo sapiens, UniProt O95819)
[3] = biological target: panel of more than 300 wild-type and mutant kinases (313 kinase panel) (Homo sapiens, UniProt Q9BYP7)
Chain of panel of more than 300 wild-type and mutant kinases (313 kinase panel) (Homo sapiens, UniProt Q9BYP7) (Q9BYP7 whole entry, change not shown): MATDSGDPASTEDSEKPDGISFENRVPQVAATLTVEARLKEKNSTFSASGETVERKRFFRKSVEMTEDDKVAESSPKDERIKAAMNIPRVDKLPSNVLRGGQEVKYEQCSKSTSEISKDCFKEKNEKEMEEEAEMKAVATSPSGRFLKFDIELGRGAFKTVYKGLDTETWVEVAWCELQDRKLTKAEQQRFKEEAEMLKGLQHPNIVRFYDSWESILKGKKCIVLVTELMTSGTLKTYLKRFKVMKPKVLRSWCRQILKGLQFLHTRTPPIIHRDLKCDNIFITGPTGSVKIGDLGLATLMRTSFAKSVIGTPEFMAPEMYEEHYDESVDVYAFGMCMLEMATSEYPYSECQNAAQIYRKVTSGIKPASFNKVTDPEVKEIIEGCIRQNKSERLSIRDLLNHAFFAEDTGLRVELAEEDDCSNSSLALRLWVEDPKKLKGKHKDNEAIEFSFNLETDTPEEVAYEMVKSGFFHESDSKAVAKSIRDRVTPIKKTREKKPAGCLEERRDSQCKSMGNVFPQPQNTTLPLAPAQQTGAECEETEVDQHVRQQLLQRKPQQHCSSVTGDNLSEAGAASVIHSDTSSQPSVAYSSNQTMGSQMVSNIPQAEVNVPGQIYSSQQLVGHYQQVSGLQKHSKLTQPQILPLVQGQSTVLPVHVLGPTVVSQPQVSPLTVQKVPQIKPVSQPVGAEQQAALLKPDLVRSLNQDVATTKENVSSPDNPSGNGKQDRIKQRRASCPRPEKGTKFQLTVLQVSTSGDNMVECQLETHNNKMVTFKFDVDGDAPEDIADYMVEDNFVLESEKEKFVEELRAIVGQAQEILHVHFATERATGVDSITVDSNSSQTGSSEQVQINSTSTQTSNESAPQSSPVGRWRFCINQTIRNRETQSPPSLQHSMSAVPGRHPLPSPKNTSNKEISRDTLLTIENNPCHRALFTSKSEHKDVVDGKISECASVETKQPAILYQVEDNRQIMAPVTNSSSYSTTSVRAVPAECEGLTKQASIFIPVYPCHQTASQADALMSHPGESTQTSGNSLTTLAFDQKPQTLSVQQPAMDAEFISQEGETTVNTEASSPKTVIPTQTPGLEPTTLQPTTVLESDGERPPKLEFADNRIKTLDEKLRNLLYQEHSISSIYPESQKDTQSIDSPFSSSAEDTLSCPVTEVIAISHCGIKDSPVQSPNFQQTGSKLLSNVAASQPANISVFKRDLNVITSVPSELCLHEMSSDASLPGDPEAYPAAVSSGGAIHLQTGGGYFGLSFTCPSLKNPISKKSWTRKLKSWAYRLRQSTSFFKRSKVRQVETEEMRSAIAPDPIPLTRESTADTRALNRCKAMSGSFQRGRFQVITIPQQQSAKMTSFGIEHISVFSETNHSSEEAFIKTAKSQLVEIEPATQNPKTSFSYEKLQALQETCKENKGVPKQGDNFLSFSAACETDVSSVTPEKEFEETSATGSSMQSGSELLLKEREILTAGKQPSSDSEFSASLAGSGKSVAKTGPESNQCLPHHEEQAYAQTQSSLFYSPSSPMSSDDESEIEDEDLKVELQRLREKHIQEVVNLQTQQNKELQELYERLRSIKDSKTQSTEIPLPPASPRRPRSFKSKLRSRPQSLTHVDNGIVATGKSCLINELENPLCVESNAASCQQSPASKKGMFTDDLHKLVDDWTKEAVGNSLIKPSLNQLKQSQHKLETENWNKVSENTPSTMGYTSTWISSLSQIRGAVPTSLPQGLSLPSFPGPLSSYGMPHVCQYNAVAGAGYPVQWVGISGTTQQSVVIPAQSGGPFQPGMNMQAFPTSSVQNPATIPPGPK

[4] = biological target: panel of more than 300 wild-type and mutant kinases (313 kinase panel) (Homo sapiens, UniProt Q9UPE1)
[5] = biological target: panel of more than 300 wild-type and mutant kinases (313 kinase panel) (Homo sapiens, UniProt Q9Y3S1)
[6] = biological target: panel of more than 300 wild-type and mutant kinases (313 kinase panel) (Homo sapiens, UniProt Q15119)
[7] = biological target: panel of more than 300 wild-type and mutant kinases (313 kinase panel) (Homo sapiens, UniProt P22455)
[8] = biological target: panel of more than 300 wild-type and mutant kinases (313 kinase panel) (Homo sapiens, UniProt Q15375)
Chain of panel of more than 300 wild-type and mutant kinases (313 kinase panel) (Homo sapiens, UniProt Q15375) (Q15375 28-998, change not shown): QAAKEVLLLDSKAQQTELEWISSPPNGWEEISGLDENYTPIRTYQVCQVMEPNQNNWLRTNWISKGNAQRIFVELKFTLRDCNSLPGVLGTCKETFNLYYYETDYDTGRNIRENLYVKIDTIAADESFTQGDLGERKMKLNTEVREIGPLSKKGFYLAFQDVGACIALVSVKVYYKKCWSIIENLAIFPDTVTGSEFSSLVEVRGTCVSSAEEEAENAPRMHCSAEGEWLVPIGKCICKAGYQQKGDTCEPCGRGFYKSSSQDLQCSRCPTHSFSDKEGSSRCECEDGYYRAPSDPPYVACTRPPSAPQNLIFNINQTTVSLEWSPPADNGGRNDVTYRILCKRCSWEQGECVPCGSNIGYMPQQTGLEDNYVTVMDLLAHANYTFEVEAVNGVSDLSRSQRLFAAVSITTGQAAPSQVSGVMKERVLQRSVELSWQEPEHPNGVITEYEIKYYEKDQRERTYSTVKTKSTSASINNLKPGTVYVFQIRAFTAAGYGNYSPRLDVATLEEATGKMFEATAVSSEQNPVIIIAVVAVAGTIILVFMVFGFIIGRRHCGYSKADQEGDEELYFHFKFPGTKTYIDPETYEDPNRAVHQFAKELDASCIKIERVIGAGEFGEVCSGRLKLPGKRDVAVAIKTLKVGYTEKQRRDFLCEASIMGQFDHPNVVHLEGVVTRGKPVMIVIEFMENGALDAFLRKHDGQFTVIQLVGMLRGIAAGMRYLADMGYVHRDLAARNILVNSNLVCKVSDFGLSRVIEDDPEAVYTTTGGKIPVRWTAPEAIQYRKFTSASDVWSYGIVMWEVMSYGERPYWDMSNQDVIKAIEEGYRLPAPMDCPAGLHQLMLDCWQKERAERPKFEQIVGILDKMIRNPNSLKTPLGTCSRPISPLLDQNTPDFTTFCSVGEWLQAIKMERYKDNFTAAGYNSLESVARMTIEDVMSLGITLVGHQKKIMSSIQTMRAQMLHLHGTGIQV

[9] = biological target: T1, panel of more than 300 wild-type and mutant kinases (313 kinase panel) (Homo sapiens, UniProt Q9H093)
T1 sequence (Q9H093 1-628): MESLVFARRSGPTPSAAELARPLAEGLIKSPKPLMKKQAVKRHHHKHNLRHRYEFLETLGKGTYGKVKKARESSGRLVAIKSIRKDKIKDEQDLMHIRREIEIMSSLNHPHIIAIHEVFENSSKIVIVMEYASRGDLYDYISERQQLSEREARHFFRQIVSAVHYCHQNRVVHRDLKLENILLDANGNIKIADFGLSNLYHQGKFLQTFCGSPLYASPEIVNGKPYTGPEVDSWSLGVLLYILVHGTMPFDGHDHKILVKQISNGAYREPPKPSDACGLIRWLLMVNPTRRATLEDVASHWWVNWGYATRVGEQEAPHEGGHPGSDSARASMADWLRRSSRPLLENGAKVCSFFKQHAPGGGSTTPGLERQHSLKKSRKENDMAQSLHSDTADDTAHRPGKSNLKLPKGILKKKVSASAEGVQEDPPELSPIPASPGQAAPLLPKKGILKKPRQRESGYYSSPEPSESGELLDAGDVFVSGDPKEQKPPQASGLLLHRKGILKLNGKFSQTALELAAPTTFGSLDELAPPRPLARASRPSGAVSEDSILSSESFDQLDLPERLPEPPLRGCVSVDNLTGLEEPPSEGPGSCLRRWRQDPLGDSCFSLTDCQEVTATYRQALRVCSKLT

[10] = biological target: panel of more than 300 wild-type and mutant kinases (313 kinase panel) (Homo sapiens, UniProt P22607, K650M)
Chain of panel of more than 300 wild-type and mutant kinases (313 kinase panel) (Homo sapiens, UniProt P22607, K650M) (P22607 23-806 K650M): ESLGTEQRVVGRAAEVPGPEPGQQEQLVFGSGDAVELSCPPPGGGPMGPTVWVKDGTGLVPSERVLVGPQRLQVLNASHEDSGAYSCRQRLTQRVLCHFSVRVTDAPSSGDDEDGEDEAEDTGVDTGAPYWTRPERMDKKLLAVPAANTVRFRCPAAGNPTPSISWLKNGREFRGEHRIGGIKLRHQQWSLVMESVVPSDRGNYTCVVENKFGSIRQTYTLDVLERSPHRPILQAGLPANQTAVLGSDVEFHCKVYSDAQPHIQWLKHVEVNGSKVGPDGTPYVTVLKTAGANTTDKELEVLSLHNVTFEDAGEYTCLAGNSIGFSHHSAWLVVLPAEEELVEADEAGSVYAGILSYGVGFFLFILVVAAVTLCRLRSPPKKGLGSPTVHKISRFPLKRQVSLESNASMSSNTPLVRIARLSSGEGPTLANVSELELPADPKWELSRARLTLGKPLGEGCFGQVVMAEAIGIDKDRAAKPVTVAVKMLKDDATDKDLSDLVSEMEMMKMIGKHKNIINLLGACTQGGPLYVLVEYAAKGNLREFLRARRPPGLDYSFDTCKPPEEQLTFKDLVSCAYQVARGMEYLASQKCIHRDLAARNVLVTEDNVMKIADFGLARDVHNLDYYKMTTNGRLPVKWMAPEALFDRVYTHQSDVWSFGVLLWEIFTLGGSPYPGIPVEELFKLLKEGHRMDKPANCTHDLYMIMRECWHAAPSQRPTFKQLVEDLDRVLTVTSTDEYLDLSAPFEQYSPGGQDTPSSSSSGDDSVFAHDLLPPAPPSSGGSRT

[11] = biological target: panel of more than 300 wild-type and mutant kinases (313 kinase panel) (Homo sapiens, UniProt Q14289)
Chain of panel of more than 300 wild-type and mutant kinases (313 kinase panel) (Homo sapiens, UniProt Q14289) (Q14289 whole entry, change not shown): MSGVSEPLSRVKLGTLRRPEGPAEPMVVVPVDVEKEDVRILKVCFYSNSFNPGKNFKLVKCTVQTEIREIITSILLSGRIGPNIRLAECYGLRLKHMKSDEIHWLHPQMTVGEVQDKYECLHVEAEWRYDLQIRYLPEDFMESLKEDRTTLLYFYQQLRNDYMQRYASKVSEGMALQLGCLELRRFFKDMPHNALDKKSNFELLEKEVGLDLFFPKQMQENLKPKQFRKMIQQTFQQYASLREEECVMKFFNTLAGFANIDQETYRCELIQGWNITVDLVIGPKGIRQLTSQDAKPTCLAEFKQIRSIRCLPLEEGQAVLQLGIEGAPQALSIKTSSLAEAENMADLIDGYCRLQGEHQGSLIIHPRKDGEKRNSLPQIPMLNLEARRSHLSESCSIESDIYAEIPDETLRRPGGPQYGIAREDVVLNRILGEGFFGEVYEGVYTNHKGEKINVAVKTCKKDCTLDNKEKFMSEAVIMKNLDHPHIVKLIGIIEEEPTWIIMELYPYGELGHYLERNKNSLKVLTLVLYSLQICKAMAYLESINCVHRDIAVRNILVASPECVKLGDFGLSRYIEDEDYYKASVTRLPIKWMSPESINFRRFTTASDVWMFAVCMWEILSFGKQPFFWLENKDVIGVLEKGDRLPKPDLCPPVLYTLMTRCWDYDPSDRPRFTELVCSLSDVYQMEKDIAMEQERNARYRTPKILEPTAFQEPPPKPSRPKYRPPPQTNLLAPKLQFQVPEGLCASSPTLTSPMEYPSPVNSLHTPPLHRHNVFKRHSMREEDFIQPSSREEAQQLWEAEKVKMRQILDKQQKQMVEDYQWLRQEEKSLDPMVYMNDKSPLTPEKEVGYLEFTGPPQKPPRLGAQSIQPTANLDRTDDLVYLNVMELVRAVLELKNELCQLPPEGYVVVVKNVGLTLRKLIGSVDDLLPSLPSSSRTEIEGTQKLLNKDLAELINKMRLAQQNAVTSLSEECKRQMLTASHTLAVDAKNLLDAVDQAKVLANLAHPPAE

[12] = biological target: panel of more than 300 wild-type and mutant kinases (313 kinase panel) (Homo sapiens, UniProt P19784)
Chain of panel of more than 300 wild-type and mutant kinases (313 kinase panel) (Homo sapiens, UniProt P19784) (P19784 whole entry, change not shown): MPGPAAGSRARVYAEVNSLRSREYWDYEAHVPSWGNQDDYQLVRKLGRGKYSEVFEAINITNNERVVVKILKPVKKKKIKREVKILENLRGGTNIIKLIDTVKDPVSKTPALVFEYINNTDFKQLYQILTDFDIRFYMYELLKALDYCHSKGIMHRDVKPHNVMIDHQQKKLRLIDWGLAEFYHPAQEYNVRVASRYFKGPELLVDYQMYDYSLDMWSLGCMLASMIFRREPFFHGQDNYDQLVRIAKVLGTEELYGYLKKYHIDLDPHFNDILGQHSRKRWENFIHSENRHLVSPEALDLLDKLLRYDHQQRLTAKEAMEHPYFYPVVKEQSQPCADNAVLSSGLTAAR

[13] = biological target: panel of more than 300 wild-type and mutant kinases (313 kinase panel) (Homo sapiens, UniProt Q7KZI7)
[14] = biological target: panel of more than 300 wild-type and mutant kinases (313 kinase panel) (Homo sapiens, UniProt P05771)
[15] = biological target: T2, panel of more than 300 wild-type and mutant kinases (313 kinase panel) (Homo sapiens, UniProt O14757)
T2 sequence (O14757 1-476): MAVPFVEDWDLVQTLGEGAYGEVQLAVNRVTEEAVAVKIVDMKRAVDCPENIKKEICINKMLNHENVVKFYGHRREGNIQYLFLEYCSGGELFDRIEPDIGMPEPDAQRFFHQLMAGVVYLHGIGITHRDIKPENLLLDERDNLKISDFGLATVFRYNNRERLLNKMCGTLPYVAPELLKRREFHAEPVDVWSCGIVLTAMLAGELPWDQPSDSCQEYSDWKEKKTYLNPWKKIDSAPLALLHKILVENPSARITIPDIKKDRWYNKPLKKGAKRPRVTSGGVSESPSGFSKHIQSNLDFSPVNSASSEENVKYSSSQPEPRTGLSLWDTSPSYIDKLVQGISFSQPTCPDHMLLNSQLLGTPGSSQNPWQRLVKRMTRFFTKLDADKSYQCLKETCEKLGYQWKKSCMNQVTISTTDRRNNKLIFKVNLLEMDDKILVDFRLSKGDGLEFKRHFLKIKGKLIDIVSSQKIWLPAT

[16] = kinase CDK6/CycD3, 1 μM compound
[17] = kinase FGFR3(K650M), compound at 1 μM

Row | SMILES | %-inhibition, CDK6/CycD3 [1, 16] | %-inhibition of HGK ([2]; kinase HGK, compound at 1 μM) | %-inhibition of WNK3 ([3]; kinase WNK3, compound at 1 μM) | %-inhibition of MSSK1 ([4]; kinase MSSK1, 1 μM) | %-inhibition of WNK2 ([5]; kinase WNK2, compound at 1 μM) | %-inhibition of PDHK2 ([6]; kinase PDHK2, 1 μM) | %-inhibition of FGFR4 ([7]; kinase FGFR4, compound at 1 μM) | %-inhibition of EPHA7 ([8]; kinase EPHA7, compound at 1 μM) | %-inhibition of NuaK2 ([9]; kinase NuaK2, 1 μM) | %-inhibition of FGFR3(K650M) [10, 17] | %-inhibition of PYK2 ([11]; kinase PYK2, 1 μM) | %-inhibition, CK2α2/β ([12]; kinase CK2α2/β, 1 μM compound) | %-inhibition of MARK2 ([13]; kinase MARK2, compound at 1 μM) | %-inhibition of PKCβ1 ([14]; kinase PKCβ1, 1 μM) | %-inhibition, CHK1 ([15]; kinase CHK1, 1 μM compound) | also measured
1 | CO[C@H]1C[C@@H]2CC[C@@H](C)[C@@](O)(O2)C(=O)C(=O)N2CCCC[C@H]2C(=O)O[C@H]([C@H](C)C[C@@H]2CC[C@@H](OC(=O)C(C)(CO)CO)[C@H](OC)C2)CC(=O)[C@H](C)/C=C(\C)[C@@H](O)[C@@H](OC)C(=O)[C@H](C)C[C@H](C)/C=C/C=C/C=C/1C [temsirolimus] | -3.18% | -0.299% | -13% | -8% | -7% | -2.2% | -4.51% | -6% | -5.44% | 0.626% | -3% | -5.28% | -6% | -2% | 4.42% | –
2 | C#Cc1cccc(Nc2ncnc3cc(OCCOC)c(OCCOC)cc23)c1 [erlotinib] | – | – | – | – | – | – | – | – | – | – | – | – | – | – | – | %-inhibition, CDK6/CycD3 ([1]; 1 µM): 9%; %-inhibition of HGK ([2]; 1 µM): 50%; %-inhibition of WNK3 ([3]; 1 µM): 0.315%; %-inhibition of MSSK1 ([4]; 1 µM): -5%; %-inhibition of WNK2 ([5]; 1 µM): -7%; %-inhibition of PDHK2 ([6]; 1 µM): -4%; %-inhibition of FGFR4 ([7]; 1 µM): 6%; %-inhibition of EPHA7 ([8]; 1 µM): 46%; %-inhibition of NuaK2 ([9]; 1 µM): -0.531%; %-inhibition of FGFR3(K650M) ([10]; 1 µM): 87%; %-inhibition of PYK2 ([11]; 1 µM): 8%; %-inhibition, CK2α2/β ([12]; 1 µM): -5.48%; %-inhibition of MARK2 ([13]; 1 µM): 7%; %-inhibition of PKCβ1 ([14]; 1 µM): 6%; %-inhibition, CHK1 ([15]; 1 µM): 14%
3 | CCCS(=O)(=O)Nc1ccc(F)c(C(=O)c2c[nH]c3ncc(-c4ccc(Cl)cc4)cc23)c1F [vemurafenib] | 2.43% | 26% | 53% | -6.65% | 13% | 3.73% | 5% | -0.639% | 4.36% | 8% | 0.921% | -6.56% | -0.167% | -3.81% | 4% | –
4 | CC(=O)Nc1cccc(-n2c(=O)n(C3CC3)c(=O)c3c(Nc4ccc(I)cc4F)n(C)c(=O)c(C)c32)c1 [trametinib] | -4.23% | -3.71% | 1% | -5% | 1.45% | -0.542% | -3% | -5% | 9% | -0.169% | 2.72% | -5.29% | -6% | -3.47% | -0.719% | –
5 | CS(=O)(=O)CCNCc1ccc(-c2ccc3ncnc(Nc4ccc(OCc5cccc(F)c5)c(Cl)c4)c3c2)o1 [lapatinib] | 5% | – | – | -3% | -5% | -5% | 0.821% | 6.56% | -1.19% | 1.23% | -0.787% | -3.45% | 10% | -6% | 12% | %-inhibition of HGK ([2]; 1 µM): 1%
6 | CO[C@H]1C[C@@H]2CC[C@@H](C)[C@@](O)(O2)C(=O)C(=O)N2CCCC[C@H]2C(=O)O[C@H]([C@H](C)C[C@@H]2CC[C@@H](OCCO)[C@H](OC)C2)CC(=O)[C@H](C)/C=C(\C)[C@@H](O)[C@@H](OC)C(=O)[C@H](C)C[C@H](C)/C=C/C=C/C=C/1C [everolimus] | -3% | 0.896% | -12% | -7% | -8% | 4% | -7.59% | -4% | -0.726% | 2.71% | 1.49% | -1.28% | -6% | 29% | 4% | –
7 | CNC(=O)c1cc(Oc2ccc(NC(=O)Nc3ccc(Cl)c(C(F)(F)F)c3)c(F)c2)ccn1 [regorafenib] | -1.31% | 53% | -10% | 43% | -4.43% | 7% | 33% | 84% | -24% | 101% | -0.496% | -5.46% | 2.17% | -7% | -3% | –
